According to patent US20250011299A1, “PYRIDAZINYL AMINO DERIVATIVES AS ALK5 INHIBITORS” (CHIESI FARMACEUTICI S.P.A., priority 2021, published 2025):

Molecular target: T1, human ALK5 (Homo sapiens, UniProt P36897)
T1 construct: human ALK5 (recombinant TGF β1 N-term GST-tagged, 80-end); GST (N); purchased
T1 sequence (P36897 80-503 limits assumed): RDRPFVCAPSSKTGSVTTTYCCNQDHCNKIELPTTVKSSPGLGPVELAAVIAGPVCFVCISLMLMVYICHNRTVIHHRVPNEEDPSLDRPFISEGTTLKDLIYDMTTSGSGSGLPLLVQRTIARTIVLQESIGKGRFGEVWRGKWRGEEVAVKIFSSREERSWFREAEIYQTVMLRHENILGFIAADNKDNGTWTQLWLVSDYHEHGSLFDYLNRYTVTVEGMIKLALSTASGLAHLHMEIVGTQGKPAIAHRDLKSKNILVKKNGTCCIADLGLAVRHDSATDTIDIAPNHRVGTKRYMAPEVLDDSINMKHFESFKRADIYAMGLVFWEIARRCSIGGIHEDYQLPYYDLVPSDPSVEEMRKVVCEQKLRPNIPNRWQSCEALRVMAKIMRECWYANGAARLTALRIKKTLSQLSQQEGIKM
Assay: ADP-GLO Kinases assay of ALK5 enzymatic activity
Assay type: biochemical
Conditions: purified recombinant human ALK5, TGFβ1 peptide substrate, pIC50 converted to pKi by Cheng-Prusoff, high ATP protocol (15 μM) for very potent compounds, 25° C.
In short: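 Purified ALK5 preincubated 15 min with compound, then reacted with substrate and ATP; ADP formed read by ADP-Glo luminescence after 120 min or 60 min reaction, all steps at 25° C. 11-point concentration-response; pIC50 converted to pKi via Cheng-Prusoff.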

Structure (SMILES) | Ki [nM]
COCC1(CN(C)c2nnc(-c3cc(Cl)ccc3F)cc2Nc2ccnc(NC(=O)CCN3CCN(C)CC3)c2)CCOC1=O (single isomer, unassigned) [Example 202, N-(4-{[6-(5-chloro-2-fluorophenyl)-3-({[3-(methoxymethyl)-2-oxooxolan-3-yl]methyl}(methyl)amino)pyridazin-4-yl]amino}pyridin-2-yl)-3-(4-methylpiperazin-1-yl)propanamide] | 0.126 to 0.316
COC(=O)NCCN1CCN(CCC(=O)Nc2cc(Nc3cc(-c4cc(Cl)ccc4F)nnc3SC)ccn2)CC1 [Example 21, methyl N-[2-(4-{2-[(4-{[6-(5-chloro-2-fluorophenyl)-3-(methylsulfanyl)pyridazin-4-yl]amino}pyridin-2-yl)carbamoyl]ethyl}piperazin-1-yl)ethyl]carbamate] | ≤ 0.1
COCCOc1nnc(-c2cc(Cl)ccc2F)cc1Nc1ccnc(N)c1 [Example 69, N4-[6-(5-chloro-2-fluorophenyl)-3-(2-methoxyethoxy)pyridazin-4-yl]pyridine-2,4-diamine] | 0.398 to 3.16
CN(CCC(O)C(F)(F)F)c1nnc(-c2cc(Cl)ccc2F)cc1Nc1ccnc(NC(=O)CN2C[C@@H]3C[C@H]2CN3C)c1 (mixture of isomers) [Example 130, N-(4-{[6-(5-chloro-2-fluorophenyl)-3-[methyl(4,4,4-trifluoro-3-hydroxybutyl)amino]pyridazin-4-yl]amino}pyridin-2-yl)-2-[(1S,4S)-5-methyl-2,5-diazabicyclo[2.2.1]heptan-2-yl]acetamide] | ≤ 0.1
CN1CCCN(CC(=O)Nc2cc(Nc3cc(-c4cc(Cl)ccc4F)nnc3OC3CCOC3)ccn2)CC1 (racemic) [Example 72, N-(4-{[6-(5-chloro-2-fluorophenyl)-3-(oxolan-3-yloxy)pyridazin-4-yl]amino}pyridin-2-yl)-2-(4-methyl-1,4-diazepan-1-yl)acetamide] | ≤ 0.1
CN1CCN(CC23CC(C(=O)Nc4cc(Nc5cc(-c6cc(Cl)ccc6F)nnc5SCCO)ncn4)(C2)C3)CC1 [Example 182, N-(6-{[6-(5-chloro-2-fluorophenyl)-3-[(2-hydroxyethyl)sulfanyl]pyridazin-4-yl]amino}pyrimidin-4-yl)-3-[(4-methylpiperazin-1-yl)methyl]bicyclo[1.1.1]pentane-1-carboxamide] | 0.126 to 0.316
Cc1oc(=O)oc1CSc1nnc(-c2cc(Cl)ccc2F)cc1Nc1ccnc(NC(=O)CCN2CCN(C)CC2)c1 [Example 190, N-(4-{[6-(5-chloro-2-fluorophenyl)-3-{[(5-methyl-2-oxo-2H-1,3-dioxol-4-yl)methyl]sulfanyl}pyridazin-4-yl]amino}pyridin-2-yl)-3-(4-methylpiperazin-1-yl)propanamide] | ≤ 0.1
COc1ccc2c(Nc3cc(-c4cc(Cl)ccc4F)nnc3OCCN(C)C)ccnc2c1 [Example 39, N-[6-(5-chloro-2-fluorophenyl)-3-[2-(dimethylamino)ethoxy]pyridazin-4-yl]-7-methoxyquinolin-4-amine] | 0.398 to 3.16
CN1CCN(CCC(=O)Nc2cc(Nc3cc(-c4cc(Cl)ccc4F)nnc3O[C@H]3C[C@@H](CO)C3)ccn2)CC1 [Example 80, N-(4-{[6-(5-chloro-2-fluorophenyl)-3-[3-(hydroxymethyl)cyclobutoxy]pyridazin-4-yl]amino}pyridin-2-yl)-3-(4-methylpiperazin-1-yl)propanamide] | ≤ 0.1
CN(CCC(O)C(F)(F)F)c1nnc(-c2cc(Cl)ccc2F)cc1Nc1ccnc(NC(=O)CN2C[C@@H]3C[C@H]2CN3C)c1 (single isomer, unassigned) [Example 131] | ≤ 0.1
C[N+](C)(C)CCCOc1nnc(-c2cc(Cl)ccc2F)cc1Nc1ccnc(NC(=O)C2CC2)c1 [Example 58, (3-{[6-(5-chloro-2-fluorophenyl)-4-[(2-cyclopropaneamidopyridin-4-yl)amino]pyridazin-3-yl]oxy}propyl)trimethylazanium chloride] | 0.398 to 3.16
CN1CCN(CCOc2ccc3c(Nc4cc(-c5cc(Cl)ccc5F)nnc4OCC(F)(F)F)ccnc3c2)CC1 [Example 51, N-[6-(5-chloro-2-fluorophenyl)-3-(2,2,2-trifluoroethoxy)pyridazin-4-yl]-7-[2-(4-methylpiperazin-1-yl)ethoxy]quinolin-4-amine] | ≤ 0.1
CN1CCN(CCC(=O)Nc2cc(Nc3cc(-c4cc(Cl)ccc4F)nnc3N(C)C[C@@]3(C)CCOC3=O)ccn2)CC1 (racemic) [Example 127, N-(4-{[6-(5-chloro-2-fluorophenyl)-3-{methyl[(3-methyl-2-oxooxolan-3-yl)methyl]amino}pyridazin-4-yl]amino}pyridin-2-yl)-3-(4-methylpiperazin-1-yl)propanamide] | ≤ 0.1
CN1CCN(CCC(=O)Nc2cc(Nc3cc(-c4cc(Cl)ccc4F)nnc3OCC(F)F)ccn2)CC1 [Example 52, N-(4-{[6-(5-chloro-2-fluorophenyl)-3-(2,2-difluoroethoxy)pyridazin-4-yl]amino}pyridin-2-yl)-3-(4-methylpiperazin-1-yl)propanamide] | 0.126 to 0.316
C[C@@H]1CN(CCC(=O)Nc2cc(Nc3cc(-c4cc(Cl)ccc4F)nnc3N(C)CC3(C)CCOC3=O)ncn2)C[C@H](C)N1 (single isomer, unassigned) [Example 198, N-(6-{[6-(5-chloro-2-fluorophenyl)-3-{methyl[(3-methyl-2-oxooxolan-3-yl)methyl]amino}pyridazin-4-yl]amino}pyrimidin-4-yl)-3-(3,5-dimethylpiperazin-1-yl)propanamide] | ≤ 0.1
CN1CCN(CCC(=O)Nc2cc(Nc3cc(-c4cc(Cl)ccc4F)nnc3SC3(C)CCOC3=O)ccn2)CC1 (racemic) [Example 192, N-(4-{[6-(5-chloro-2-fluorophenyl)-3-[(3-methyl-2-oxooxolan-3-yl)sulfanyl]pyridazin-4-yl]amino}pyridin-2-yl)-3-(4-methylpiperazin-1-yl)propanamide] | 0.126 to 0.316
O=C(Nc1cc(Nc2cc(-c3cc(Cl)ccc3F)nnc2SCCO)ccn1)[C@H]1C[C@@H](N2CCSCC2)C1 [Example 89, Cis N-(4-{[6-(5-chloro-2-fluorophenyl)-3-[(2-hydroxyethyl)sulfanyl]pyridazin-4-yl]amino}pyridin-2-yl)-3-(thiomorpholin-4-yl)cyclobutane-1-carboxamide] | ≤ 0.1
CN1CCN(CC23CC(C(=O)Nc4cc(Nc5cc(-c6cc(Cl)ccc6F)nnc5SCCO)ccn4)(C2)C3)CC1 [Example 180, N-(4-{[6-(5-chloro-2-fluorophenyl)-3-[(2-hydroxyethyl)sulfanyl]pyridazin-4-yl]amino}pyridin-2-yl)-3-[(4-methylpiperazin-1-yl)methyl]bicyclo[11.1.1]pentane-1-carboxamide] | ≤ 0.1
CN1CCN(CCC(=O)Nc2cc(Nc3cc(-c4cc(Cl)ccc4F)nnc3N(C)CC3(C)CCOC3=O)ncn2)CC1 (single isomer, unassigned; enantiomer 1) [Example 138, Enantiomer 1 N-(6-{[6-(5-chloro-2-fluorophenyl)-3-{methyl[(3-methyl-2-oxooxolan-3-yl)methyl]amino}pyridazin-4-yl]amino}pyrimidin-4-yl)-3-(4-methylpiperazin-1-yl)propanamide] | ≤ 0.1
CN1CCN(CCC(=O)Nc2cc(Nc3cc(-c4cc(Cl)ccc4F)nnc3SCC3CCCC(=O)O3)ccn2)CC1 (racemic) [Example 204, N-(4-{[6-(5-chloro-2-fluorophenyl)-3-{[(6-oxooxan-2-yl)methyl]sulfanyl}pyridazin-4-yl]amino}pyridin-2-yl)-3-(4-methylpiperazin-1-yl)propanamide] | ≤ 0.1
COc1ccc2c(Nc3cc(-c4cc(Cl)ccc4F)nnc3OCCN3CCN(C)CC3)ccnc2c1 [Example 35, N-[6-(5-chloro-2-fluorophenyl)-3-[2-(4-methylpiperazin-1-yl)ethoxy]pyridazin-4-yl]-7-methoxyquinolin-4-amine] | 0.126 to 0.316
CN1CCN(CCC(=O)Nc2cc(Nc3cc(-c4cc(Cl)ccc4F)nnc3N3CCC3C(=O)O)ccn2)CC1 (stereo not shown) [Example 151, ammonium 1-[6-(5-chloro-2-fluorophenyl)-4-({2-[3-(4-methylpiperazin-1-yl)propanamido]pyridin-4-yl}amino)pyridazin-3-yl]azetidine-2-carboxylate] | 0.398 to 3.16
CN1CCCN(CC(=O)Nc2cc(Nc3cc(-c4cc(Cl)ccc4F)nnc3SCCO)ccn2)CC1 [Example 27, N-(4-{[6-(5-chloro-2-fluorophenyl)-3-[(2-hydroxyethyl)sulfanyl]pyridazin-4-yl]amino}pyridin-2-yl)-2-(4-methyl-1,4-diazepan-1-yl)acetamide] | ≤ 0.1
CN1CCN(CCC(=O)Nc2cc(Nc3cc(-c4cc(Cl)ccc4F)nnc3N(C)CC3CCOC3=O)ccn2)CC1 (stereo not shown) [Example 108, N-(4-{[6-(5-chloro-2-fluorophenyl)-3-{methyl[(2-oxooxolan-3-yl)methyl]amino}pyridazin-4-yl]amino}pyridin-2-yl)-3-(4-methylpiperazin-1-yl)propanamide] | ≤ 0.1
CS(=O)(=O)NCCOc1nnc(-c2cc(Cl)ccc2F)cc1Nc1ccnc(N)c1 [Example 45, N-[2-({4-[(2-aminopyridin-4-yl)amino]-6-(5-chloro-2-fluorophenyl)pyridazin-3-yl}oxy)ethyl]methanesulfonamide] | ≤ 0.1
